≈ marks a conversion by molar mass, not a printed value.
Legend:
[1] = system: Candida albicans; assay: In vitro Anti-Candida activity, dilutions in Sabouraud's Dextrose Agar (Table III); format: cell-based; settings: 48 h
Method: (§1) All the tests were carried out and (when necessary) scored under standard conditions. "MIC" means "minimum inhibitory concentration."
In vitro Anti-Candida Activity of 2-aminoalkyl-3-phenyl-
indoles of the formula I. Dilutions in Sabouraud's Dextrose
MIC (mcg/ml) after 48 hours

[2] = system: Bacteroides melaninogenicus; assay: In vitro activity against anaerobes in fluid Thioglycollate medium (Table II); format: cell-based
Method: as §1
(§2) In vitro activity of 2-aminoalkyl-3-phenylindoles of the formula I
(§3) against anaerobes in fluid Thioglycollate medium

[3] = system: Bacteroides fragilis; assay: as above; format: cell-based
Method: as §1, §2, §3

[4] = system: Clostridium histolyticum; assay: as above; format: cell-based; settings: Hathewaya histolytica
Method: as §1, §2, §3

[5] = system: Clostridium septicum; assay: as above; format: cell-based
Method: as §1, §2, §3

[6] = system: Clostridium novyi; assay: as above; format: cell-based
Method: as §1, §2, §3

[7] = system: Bacteroides corrodens; assay: as above; format: cell-based; settings: Eikenella corrodens
Method: as §1, §2, §3

[8] = system: Peptostreptococcus; assay: as above; format: cell-based
Method: as §1, §2, §3

[9] = system: Eubacterium lentum; assay: as above; format: cell-based; settings: Eggerthella lenta
Method: as §1, §2, §3

[10] = system: Trychomonas vaginalis; assay: In vitro Anti-Trichomonal activity (Table VII); format: cell-based
Method: as §1
In vitro Anti-Trichomonal Activity of some 2-aminoalkyl-3-
phenyl-indenes of formula II.

[11] = system: Trichophyton ascoides; assay: In vitro antifungal activity, dilutions in Sabouraud's Dextrose Broth (Table IV); format: cell-based; settings: after 96 hours
Method: as §1
(§4) In vitro Antifungal Activity of 2-amioalkyl-3-phenylindoles
(§5) of the formula I against Dermetophytes and Aspergillus.
(§6) Dilutions in Sabouraud's Dextrose Broth.

[12] = system: Trichophyton rubrum; assay: as above; format: cell-based; settings: 96 h
Method: as §1, §4, §5, §6

[13] = system: Aspergillus niger 6275; assay: as above; format: cell-based; settings: after 96 hours
Method: as §1, §4, §5, §6

[14] = system: Trichophyton mentagrophytes; assay: as above; format: cell-based; settings: 96 h
Method: as §1, §4, §5, §6

[15] = system: Tricoderm sp.; assay: as above; format: cell-based; settings: after 96 hours
Method: as §1, §4, §5, §6

[16] = system: Trichophyton gallinae; assay: as above; format: cell-based; settings: after 96 hours
Method: as §1, §4, §5, §6

[17] = system: Trichophyton soudenense; assay: as above; format: cell-based; settings: after 96 hours
Method: as §1, §4, §5, §6

[18] = system: Trichophyton megninii; assay: as above; format: cell-based; settings: Trichophyton rubrum; after 96 hours
Method: as §1, §4, §5, §6

[19] = system: Trichophyton tonsurans; assay: as above; format: cell-based; settings: after 96 hours
Method: as §1, §4, §5, §6

[20] = system: Trichophyton ferrugineum; assay: as above; format: cell-based; settings: Microsporum ferrugineum; after 96 hours
Method: as §1, §4, §5, §6

[21] = system: Trichophyton discoides; assay: as above; format: cell-based; settings: after 96 hours
Method: as §1, §4, §5, §6

[22] = system: Aspergillus sp. No. 3; assay: as above; format: cell-based; settings: after 96 hours
Method: as §1, §4, §5, §6

[23] = system: Microsporum distortum; assay: as above; format: cell-based; settings: after 96 hours
Method: as §1, §4, §5, §6

[24] = system: Trichophyton schoenleinii; assay: as above; format: cell-based; settings: 96 h
Method: as §1, §4, §5, §6

[25] = system: Microsporum nanum; assay: as above; format: cell-based; settings: Nannizzia nana; after 96 hours
Method: as §1, §4, §5, §6

[26] = system: Epidermophyton floccosum; assay: as above; format: cell-based; settings: after 96 hours
Method: as §1, §4, §5, §6

[27] = Acute toxicity in mice (Table V); settings: mouse, in vivo
Method: as §1
Acute Toxicity of 2-aminoalkyl-3-phenylindoles of the formula I

[28] = system: Proteus mirabilis; assay: In vitro antibacterial activity, dilution in Mueller Hinton Agar (Table I); format: cell-based; settings: Mueller Hinton Agar pH 7.4
Method: as §1
(§7) In vitro Antibacterial Activity of 2-aminoalkyl-3-phenyl-
(§8) indoles of the formula I. Dilution in Mueller Hinton Agar pH 7.4

[29] = system: Enterococcus; assay: as above; format: cell-based
Method: as §1, §7, §8

[30] = system: Staphylococcus aureus; assay: as above; format: cell-based; settings: Mueller Hinton Agar pH 7.4
Method: as §1, §7, §8

Structure (SMILES): NCc1[nH]c2ccc(Cl)cc2c1-c1ccccc1F [A, 2-Aminomethyl-5-chloro-3-(2-fluorophenyl)indole]
- MIC ([1]; strain 1, after 48 hours): 75 µg/mL (≈ 273 µM)
- MIC ([1]; strain 2, after 48 hours): 75 µg/mL (≈ 273 µM)
- MIC ([1]; strain 3, after 48 hours): 75 µg/mL (≈ 273 µM)
- MIC ([1]; strain 4, after 48 hours): 75 µg/mL (≈ 273 µM)
- MIC ([1]; strain 5, after 48 hours): 75 µg/mL (≈ 273 µM)
- MIC ([1]; strain 6, after 48 hours): 75 µg/mL (≈ 273 µM)
- MIC ([1]; strain 8, after 48 hours): 75 µg/mL (≈ 273 µM)
- MIC ([1]; strain 9, after 48 hours): 75 µg/mL (≈ 273 µM)
- MIC ([1]; strain 29, after 48 hours): 75 µg/mL (≈ 273 µM)
- MIC ([1]; strain Atkisson, after 48 hours): 75 µg/mL (≈ 273 µM)
- MIC ([1]; strain Bertrand, after 48 hours): 75 µg/mL (≈ 273 µM)
- MIC ([1]; strain Bevan, after 48 hours): 75 µg/mL (≈ 273 µM)
- MIC ([1]; strain Blunden, after 48 hours): 75 µg/mL (≈ 273 µM)
- MIC ([1]; strain Bognay, after 48 hours): 75 µg/mL (≈ 273 µM)
- MIC ([1]; strain Boyer, after 48 hours): 75 µg/mL (≈ 273 µM)
- MIC ([1]; strain Burke, after 48 hours): 75 µg/mL (≈ 273 µM)
- MIC ([1]; strain Burnside, after 48 hours): 75 µg/mL (≈ 273 µM)
- MIC ([1]; strain Collins, after 48 hours): 75 µg/mL (≈ 273 µM)
- MIC ([1]; strain Fix, after 48 hours): 75 µg/mL (≈ 273 µM)
- MIC ([1]; strain Frazier, after 48 hours): 75 µg/mL (≈ 273 µM)
- MIC ([1]; strain Fulcher, after 48 hours): 75 µg/mL (≈ 273 µM)
- MIC ([1]; strain Gay, after 48 hours): 75 µg/mL (≈ 273 µM)
- MIC ([1]; strain Hons, after 48 hours): 75 µg/mL (≈ 273 µM)
- MIC ([1]; strain Johnson, after 48 hours): 75 µg/mL (≈ 273 µM)
- MIC ([1]; strain Kenndy 2, after 48 hours): 75 µg/mL (≈ 273 µM)
- MIC ([1]; strain Kennedy 1, after 48 hours): 37.5 µg/mL (≈ 136 µM)
- MIC ([1]; strain Lehtman, after 48 hours): 75 µg/mL (≈ 273 µM)
- MIC ([1]; strain Lusk, after 48 hours): 75 µg/mL (≈ 273 µM)
- MIC ([1]; strain Merkel, after 48 hours): 75 µg/mL (≈ 273 µM)
- MIC ([1]; strain Newcomb, after 48 hours): 37.5 µg/mL (≈ 136 µM)
- MIC ([1]; strain Sherod, after 48 hours): 75 µg/mL (≈ 273 µM)
- MIC ([1]; strain Shurelli, after 48 hours): 75 µg/mL (≈ 273 µM)
- MIC ([1]; strain Sparks, after 48 hours): 75 µg/mL (≈ 273 µM)
- MIC ([1]; strain Tyner, after 48 hours): 75 µg/mL (≈ 273 µM)
- MIC ([2]; 48 hrs): 7.5 µg/mL (≈ 27.3 µM)
- MIC ([2]; 72 hrs): 7.5 µg/mL (≈ 27.3 µM)
- MIC ([3]; 48 hrs): 7.5 µg/mL (≈ 27.3 µM)
- MIC ([3]; 72 hrs): 7.5 µg/mL (≈ 27.3 µM)
- MIC ([4]; 48 hrs): 7.5 µg/mL (≈ 27.3 µM)
- MIC ([4]; 72 hrs): 7.5 µg/mL (≈ 27.3 µM)
- MIC ([5]; 48 hrs): 7.5 µg/mL (≈ 27.3 µM)
- MIC ([5]; 72 hrs): 7.5 µg/mL (≈ 27.3 µM)
- MIC ([6]; 48 hrs): 7.5 µg/mL (≈ 27.3 µM)
- MIC ([6]; 72 hrs): 7.5 µg/mL (≈ 27.3 µM)
- MIC ([7]; 48 hrs): 7.5 µg/mL (≈ 27.3 µM)
- MIC ([7]; 72 hrs): 7.5 µg/mL (≈ 27.3 µM)
- MIC ([8]; 48 hrs): 3 µg/mL (≈ 10.9 µM)
- MIC ([8]; 72 hrs): 3 µg/mL (≈ 10.9 µM)
- MIC ([9]; 48 hrs): 17.5 µg/mL (≈ 63.7 µM)
- MIC ([9]; 72 hrs): 17.5 µg/mL (≈ 63.7 µM)
- IC50 ([10]; 50% suppression, read-out: Minimal Level to Produce 50% Suppression): 24 µg/mL (≈ 87.4 µM)
- IC90 ([10]; 90% suppression, read-out: Minimal Level to Produce 90% Suppression): 40 µg/mL (≈ 146 µM)
- MIC [11]: 17.5 µg/mL (≈ 63.7 µM)
- MIC ([12]; strain 3, after 96 hours): 7.5 µg/mL (≈ 27.3 µM)
- MIC ([12]; strain 360, after 96 hours): 7.5 µg/mL (≈ 27.3 µM)
- MIC ([12]; strain Blehl, after 96 hours): 7.5 µg/mL (≈ 27.3 µM)
- MIC ([12]; strain Haggerty, after 96 hours): 7.5 µg/mL (≈ 27.3 µM)
- MIC [13]: 17.5 µg/mL (≈ 63.7 µM)
- MIC ([14]; strain A, after 96 hours): 7.5 µg/mL (≈ 27.3 µM)
- MIC ([14]; strain B, after 96 hours): 7.5 µg/mL (≈ 27.3 µM)
- MIC ([14]; strain C, after 96 hours): 7.5 µg/mL (≈ 27.3 µM)
- MIC ([14]; strain H377, after 96 hours): 7.5 µg/mL (≈ 27.3 µM)
- MIC ([14]; strain Young, after 96 hours): 7.5 µg/mL (≈ 27.3 µM)
- MIC [15]: 7.5 µg/mL (≈ 27.3 µM)
- MIC [16]: 7.5 µg/mL (≈ 27.3 µM)
- MIC [17]: 17.5 µg/mL (≈ 63.7 µM)
- MIC [18]: 3 µg/mL (≈ 10.9 µM)
- MIC [19]: 17.5 µg/mL (≈ 63.7 µM)
- MIC [20]: 7.5 µg/mL (≈ 27.3 µM)
- MIC [21]: 7.5 µg/mL (≈ 27.3 µM)
- MIC [22]: 17.5 µg/mL (≈ 63.7 µM)
- MIC [23]: 3 µg/mL (≈ 10.9 µM)
- MIC ([24]; strain 2, after 96 hours): 3 µg/mL (≈ 10.9 µM)
- MIC ([24]; strain not given, after 96 hours): 17.5 µg/mL (≈ 63.7 µM)
- MIC [25]: 3 µg/mL (≈ 10.9 µM)
- MIC [26]: 3 µg/mL (≈ 10.9 µM)
- LD50 ([27]; Oral): > 1000 mg/kg
- LD50 ([27]; ip, I.P.): 250 mg/kg
- LD50 ([27]; sc, S.C.): 850 mg/kg
- MIC ([28]; pH 7.4, strain Hard): 17.5 µg/mL (≈ 63.7 µM)
- MIC ([28]; pH 7.4, strain Peras): 7.5 µg/mL (≈ 27.3 µM)
- MIC ([29]; pH 7.4, strain 373, Mueller Hinton Agar pH 7.4): 7.5 µg/mL (≈ 27.3 µM)
- MIC ([29]; pH 7.4, strain 0928/72, Mueller Hinton Agar pH 7.4): 7.5 µg/mL (≈ 27.3 µM)
- MIC ([30]; 209P, pH 7.4, strain 209P): 7.5 µg/mL (≈ 27.3 µM)
- MIC ([30]; pH 7.4, strain 59N): 3 µg/mL (≈ 10.9 µM)
- MIC ([30]; pH 7.4, strain Gray): 7.5 µg/mL (≈ 27.3 µM)
- MIC ([30]; pH 7.4, strain Wood): 3 µg/mL (≈ 10.9 µM)
- MIC ([30]; pH 7.4, strain Zeigler): 3 µg/mL (≈ 10.9 µM)

From patent US4122034A, “Antimicrobial compositions” (Schering Corporation, priority 1975, dated 1978)
